The results in this text go back to patent publication US20080260850A1, “Delivery System For Bioactive Agents on the Basis of a Polymeric Drug Carrier Comprising an Amphiphilic Block Polymer and a Polylacticacid Derivative” (SAMYANG CORPORATION, priority 2004, published 2008).

In data set [1] the test system is MES-SA (doxorubicin-sensitive cell line). The experiment in a line: In vitro cytotoxicity, MTT assay. The class given is cell-based. How it is done: (§1) MTT assay is well established method for cytotoxicity test. When the cells are treated with MTT (methylthiazoletetrazolium), the MTT-formazan is produced from reduction of MTT-tetrazolium by enzymes present in living cells only (dead cells cannot reduce the MTT-tetrazolium to MTT-formazan). The fluorescence of the MTT-formazan is detected by a fluorescence reader and the optical density correlates with the number of cells.
(§2) The cytotoxic activity of each composition was evaluated in both human tumor cell lines at five ten-fold dilutions ranging from 0.01 to 100 μg/ml. […] The MTT-formazan produced from reduction of MTT-tetrazolium by enzymes present in the living cells was detected by a fluorescence reader. The optical density correlates with the number of cells. […] The MTT assay was performed essentially according to the method of Carmichael et al. (Cancer Research 47: 936 (1987)). Briefly, cells were harvested from an exponential phase culture growing in McCoy's 5A medium (Invitrogen Corp.) supplemented with 10% fetal bovine serum and 1% penicillin streptomycin, counted and plated in 96 well flat-bottomed microtiter plates (100 cell suspension, 5×10^4 cells/ml for each cell line). After a 24 h recovery to allow the cells to resume exponential growth, a culture medium (24 control wells per plate) or culture medium containing drug was added to the wells. Each drug concentration was plated in triplicate. […] Fluorescence was measured using an automatic microplate reader (SpectraMax 190, Molecular Devices) at a wavelength of 549 nm, and the number of viable cells was calculated from the optical density.
In general terms: Tetrazolium assays rely on reduction of a dye to a coloured formazan, in cell work by metabolically active cells.

Data set [2] relates to MES-SA/Dx-5 (doxorubicin-resistant cell line). The experiment in a line: In vitro cytotoxicity, MTT assay. Type of data set: cell-based. How it is done: as §1, §2
For data set [3] the following is noted: rat, in vivo, iv, 5 mg/kg. As to the method:
The rats (5 rats for each formulation) were injected intravenously through the tail vein at a dose of 5 mg/kg. The blood samples were collected from the tail vein at 1, 5, 15, 30 minutes and 1, 2, 4, 8, and 24 hours after the drug injection. The blood samples were immediately centrifuged, and the plasma was separated. The plasma samples were stored at −50° C. until analysis. Doxorubicin was analyzed by HPLC assay described in example 1.

The test system of data set [4] is MES-SA (doxorubicin-sensitive cell line). The experiment in a line: Intracellular uptake, flow cytometry (FACS). Type of data set: cell-based, human. The note with it: 1.0 μg/ml. As to the method: (§3) The flow cytometry study was performed with the FACStarPlus (Becton Dickinson) according to the method of Walker et al. (Experimental Cell Research 207: 142 (1993)). Briefly, cells (1.0×10^6) were incubated in McCoy's 5A medium (Invitrogen Corp.) supplemented with 10% fetal bovine serum and 1% penicillin streptomycin. After a 24-hour incubation period, the cells were treated with the drug composition at a dose of 1.0 μg/ml.

Data set [5] concerns MES-SA/Dx-5 (doxorubicin-resistant cell line). The experiment in a line: Intracellular uptake, flow cytometry (FACS). Type of data set: cell-based, human. The settings on record: MES-SA/Dx-5, 1.0 μg/ml. As to the method: as §3
A general note: A flow cytometer gives signals particle by particle.

As a reminder, the AUC is the area under the concentration-time curve, a measure of exposure. Read a low AUC as low exposure. As to `COc1cccc2c1C(=O)c1c(O)c3c(c(O)c1C2=O)C[C@@](O)(C(=O)CO)C[C@@H]3O[C@H]1C[C@H](N)[C@H](O)[C@H](C)O1.Cl` [Free-Dox, doxorubicin hydrochloride], the “MTT Assay IC50” value in data set [1] (time 24 hr) turned out to be 0.30 µg/mL; in data set [1] (time 48 hr) it was 0.087 µg/mL; in data set [1] (time 72 hr) it was 0.031 µg/mL; in data set [2] (MES-SA/Dx-5, time 24 hr), 54.0 µg/mL; in data set [2] (MES-SA/Dx-5, time 48 hr), 0.92 µg/mL; in data set [2] (MES-SA/Dx-5, time 72 hr), 0.75 µg/mL. Also, the AUC in data set [3] turned out to be 1300 ng·h/mL. For the same compound, the “Change of (Δ) Fluorescence Intensity” value in data set [4] (time 0 hr) was 0.0; in data set [4] (time 1 hr), 7.6; in data set [4] (time 4 hr) it was 20.6; in data set [4] (time 8 hr), 40.6; in data set [5] (time 0 hr), 0.0; in data set [5] (time 1 hr) it was 2.6. Further, the “Change of (Δ) Fluorescence Intensity” value in data set [5] (time 4 hr) was determined as 7.1; in data set [5] (time 8 hr), 9.2. The “Number of cells(%) which absorbed the drug” value came to 1.0% in data set [4] (time 0 hr); 4.0% in data set [4] (time 1 hr); 11.3% in data set [4] (time 4 hr); 35.1% in data set [4] (time 8 hr); 1.0% in data set [5] (time 0 hr); 1.8% in data set [5] (time 1 hr). For the same compound, the “Number of cells(%) which absorbed the drug” value came to 3.2% in data set [5] (time 4 hr) and 5.3% in data set [5] (time 8 hr).
